Assay results reported in patent US20170007625A1, “NOVEL FORMULATIONS TO INHIBIT CYCLOOXYGENASE AND PRO-INFLAMMATORY CYTOKINE MEDIATED DISEASES” (Bioved Pharmaceuticals, Inc., priority 2008, published 2017).

How the values were obtained:
[1] = test system: Adjuvant Arthritis (CFA induced); test: Adjuvant induced arthritis in rats; assay type: in vivo
Procedure: Arthritis or inflammation in the joint was induced by injection of Complete Freund's Adjuvant (CFA) into the left hind footpad of rats (animals). The animals were divided into three groups namely, Control, Ibuprofen and Formulation B. The role of Formulation B on specific cytokine blockade in the etiology of cachexia caused by Adjuvant Arthritis (AA) was evaluated. The parameter considered for the evaluation included paw thickness as a percent of paw thickness at Day 0 and percent body weight gain in animals. FIG. 4 illustrates paw thickness in animals as a percent of the paw thickness at Day 0 during the Adjuvant Induced Arthritis study in animals. Whereas, FIG. 5 illustrates percent body weight gain in animals during the Adjuvant Induced Arthritis study in animals.

[2] = test system: DSS induced colitis; test: Dextran Sodium Sulfate (DSS) induced colitis; assay type: in vivo; conditions: oral DSS in mice
Excerpt: Inflammation was induced in mice (animal) using oral administration of DSS.

Row | SMILES | effect on cytokine inhibition ([1]; CFA into left hind footpad) | percent body weight gain (AA-associated weight loss) ([1]; compared to control animals, FIG. 5) | reduction in food intake [2] | body weight loss ([2]; FIG. 13)
1 | CC(C)Cc1ccc(C(C)C(=O)O)cc1 (stereo not shown) [Ibuprofen] | did not show any effect | lost body weight significantly | – | –
2 | O=C(O)c1cc(/N=N/c2ccc(S(=O)(=O)Nc3ccccn3)cc2)ccc1O [Sulfasalazine] | – | – | recovered | improved the body weight loss
